Measured values published in patent publication US10954232B2, “Pyrazole derivative as ALK5 inhibitor and uses thereof” (HANMI PHARMACEUTICAL CO., LTD., priority 2016, dated 2021).

Molecular target: T1, ALK5 kinase (Homo sapiens, UniProt P36897)
T1 construct: GST; purchased Thermo Fisher Scientific Solutions
T1 sequence (P36897 34-503): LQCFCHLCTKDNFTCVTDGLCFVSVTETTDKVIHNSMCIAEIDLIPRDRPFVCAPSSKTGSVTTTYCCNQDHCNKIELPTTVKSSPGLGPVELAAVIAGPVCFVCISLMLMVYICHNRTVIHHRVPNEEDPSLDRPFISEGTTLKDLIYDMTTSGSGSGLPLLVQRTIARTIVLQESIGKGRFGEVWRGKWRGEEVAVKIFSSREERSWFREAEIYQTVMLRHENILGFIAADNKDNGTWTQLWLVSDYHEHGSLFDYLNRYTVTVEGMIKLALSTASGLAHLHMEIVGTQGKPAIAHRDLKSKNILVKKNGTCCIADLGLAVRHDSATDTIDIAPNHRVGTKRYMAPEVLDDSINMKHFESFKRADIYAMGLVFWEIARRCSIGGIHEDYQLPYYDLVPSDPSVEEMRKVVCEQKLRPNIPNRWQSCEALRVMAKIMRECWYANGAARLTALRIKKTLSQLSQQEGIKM
Test: Activity inhibition test on ALK5 enzyme (LanthaScreen Eu binding kinase assay)
Conditions: kinase tracer 178, 60 minutes at room temperature
Method in brief: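 IC50 is the concentration giving 50% inhibition relative to control, taken from fluorescence after 60 min stirring at room temperature. Final mix held kinase 5 nM, Eu-GST binding antibody 2 nM and tracer 178 10 nM. Compounds were serially diluted from 1 μM to 0.0001 μM.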

IC50 [nM]	Structure (SMILES)
> 100	Cc1cccc(-n2nc(C(=O)NCc3ccc(C#N)cc3)cc2-c2ccc3nccnc3c2)n1 [Example 194, N-(4-cyanobenzyl)-1-(6-methylpyridin-2-yl)-5-(quinoxalin-6-yl)-1H-pyrazole-3-carboxyamide]
10 to 100	CC(=O)c1cccc(CNC(=O)c2cc(-c3ccc4nccnc4c3)n(-c3cccc(C)n3)n2)c1 [Example 195, N-(3-acetylbenzyl)-1-(6-methylpyridin-2-yl)-5-(quinoxalin-6-yl)-1H-pyrazole-3-carboxyamide]
10 to 100	Cc1cccc(-n2nc(C(=O)NCc3cccc(F)c3)cc2-c2ccc3nccnc3c2)n1 [Example 197, N-(3-fluorobenzyl)-1-(6-methylpyridin-2-yl)-5-(quinoxalin-6-yl)-1H-pyrazole-3-carboxyamide]
< 100	Cc1cccc(-n2nc(C(=O)NCc3ccccc3F)cc2-c2ccc3nccnc3c2)n1 [Example 198, N-(2-fluorobenzyl)-1-(6-methylpyridin-2-yl)-5-(quinoxalin-6-yl)-1H-pyrazole-3-carboxyamide]
> 100	Cc1cccc(-n2nc(C(=O)NCc3ccc(Cl)cc3)cc2-c2ccc3nccnc3c2)n1 [Example 199, N-(4-chlorobenzyl)-1-(6-methylpyridin-2-yl)-5-(quinoxalin-6-yl)-1H-pyrazole-3-carboxyamide]
10 to 100	Cc1cccc(-n2nc(C(=O)NCc3cccc(Cl)c3)cc2-c2ccc3nccnc3c2)n1 [Example 200, N-(3-chlorobenzyl)-1-(6-methylpyridin-2-yl)-5-(quinoxalin-6-yl)-1H-pyrazole-3-carboxyamide]

Continued, molecule first:

Structure (SMILES)	IC50 [nM]
Cc1cccc(-n2nc(C(=O)Nc3cccc(F)c3)cc2-c2ccc3nccnc3c2)n1 [Example 184, N-(3-fluorophenyl)-1-(6-methylpyridin-2-yl)-5-(quinoxalin-6-yl)-1H-pyrazole-3-carboxyamide]	10 to 100
Cc1cccc(-n2nc(C(=O)Nc3ccccc3F)cc2-c2ccc3nccnc3c2)n1 [Example 185, N-(2-fluorophenyl)-1-(6-methylpyridin-2-yl)-5-(quinoxalin-6-yl)-1H-pyrazole-3-carboxyamide]	< 100
Cc1cccc(-n2nc(C(=O)Nc3ccc(F)c(F)c3)cc2-c2ccc3nccnc3c2)n1 [Example 186, N-(3,4-difluorophenyl)-1-(6-methylpyridin-2-yl)-5-(quinoxalin-6-yl)-1H-pyrazole-3-carboxyamide]	10 to 100
Cc1cccc(-n2nc(C(=O)Nc3ccc(F)cc3F)cc2-c2ccc3nccnc3c2)n1 [Example 187, N-(2,4-difluorophenyl)-1-(6-methylpyridin-2-yl)-5-(quinoxalin-6-yl)-1H-pyrazole-3-carboxyamide]	10 to 100
Cc1cccc(-n2nc(C(=O)Nc3ccc(Cl)cc3)cc2-c2ccc3nccnc3c2)n1 [Example 189, N-(4-chlorophenyl)-1-(6-methylpyridin-2-yl)-5-(quinoxalin-6-yl)-1H-pyrazole-3-carboxyamide]	10 to 100
Cc1cccc(-n2nc(C(=O)Nc3ccccc3Cl)cc2-c2ccc3nccnc3c2)n1 [Example 190, N-(2-chlorophenyl)-1-(6-methylpyridin-2-yl)-5-(quinoxalin-6-yl)-1H-pyrazole-3-carboxyamide]	100 to 1000
Cc1cccc(-n2nc(C(=O)Nc3ccc(Br)cc3)cc2-c2ccc3nccnc3c2)n1 [Example 191, N-(4-bromophenyl)-1-(6-methylpyridin-2-yl)-5-(quinoxalin-6-yl)-1H-pyrazole-3-carboxyamide]	10 to 100
COc1ccc(NC(=O)c2cc(-c3ccc4nccnc4c3)n(-c3cccc(C)n3)n2)cn1 [Example 192, N-(6-methoxypyridin-3-yl)-1-(6-methylpyridin-2-yl)-5-(quinoxalin-6-yl)-1H-pyrazole-3-carboxyamide]	10 to 100
COc1ccc(CNC(=O)c2cc(-c3ccc4nccnc4c3)n(-c3cccc(C)n3)n2)cc1 [Example 193, N-(4-methoxybenzyl)-1-(6-methylpyridin-2-yl)-5-(quinoxalin-6-yl)-1H-pyrazole-3-carboxyamide]	~100
